Source: US9808470B2, “Estrogenic components for use in the treatment of neurological disorders” (UNIVERSITE DE LIEGE, priority 2012, dated 2017)

Experiments:
Assay type in all cases: in vivo
[1] = system: S100B; assay: Ex.4 therapeutic HIE rat model: blood serum S100B ELISA; conditions: estetrol treated animals (1, 5, 10, 50 mg/kg single ip dose after HI); PND14; vs vehicle
Protocol: (§1) Blood was withdrawn, centrifuged and the serum samples were stored at −80° C.
(§2) ELISAs for detecting the brain damage markers S100B protein (Catalog# CSB-E08066r, Cusabio Biotech Co., LTD, China), and glial fibrillary acidic protein (GFAP) (Catalog# E90068Ra, Uscn Life sciences Inc., China) in blood serum samples were performed according to the manufacturers' recommendations.
To study the therapeutic effect of estetrol, newborn rat pups were assigned to one of the following 6 groups at postnatal day 7: sham group (n=29), vehicle group (n=20), 1 mg/kg E4 group (n=16), 5 mg/kg E4 group (n=19), 10 mg/kg day E4 (n=17) and 50 mg/kg day E4 group (n=15). At postnatal day 7 animals were anesthetized with isoflurane (induction, 3.0%; maintenance, 1.5%), and the rat pups from vehicle and E4 groups passed through surgery encompassing left common carotid artery double ligation and cut. After surgery, the pups were returned to their dams and allowed to recover for 1 hour. The pups were then placed in a humidified hypoxic in vivo cabinet (CoyLab). Hypoxia was produced by the inhalation of 11%-8% of oxygen balanced by nitrogen at decreased concentration of oxygen for 20 minutes, followed by inhalation of 8% oxygen and 92% nitrogen at constant concentration for 35 minutes. All the manipulations were performed at 37° C. […]

[2] = system: S100B; assay: Ex.3 neuroprotective HIE rat model: blood serum S100B ELISA; conditions: PND14
Protocol: as §1, §2
Newborn rat pups were assigned to one of the following 6 groups from postnatal day 4: Sham group (n=24), Vehicle group (n=14), E4 1 mg/kg/per day group (n=11), E4 5 mg/kg/per day group (n=14), E4 10 mg/kg/per day group (n=14), or E4 50 mg/kg/per day group (n=19). From postnatal day 4, rat pups were intraperitoneally injected either vehicle (Vehicle group) or E4 (1, 5, 10, or 50 mg/kg/per day in accordance to the E4 group assignment) or neither vehicle nor E4 (Sham group). At day 7, 30 minutes after last injection, animals were anesthetized with isoflurane (induction, 3.0%; maintenance, 1.5%), and the rat pups from Vehicle and E4 groups passed through surgery encompassing left common carotid artery double ligation and cut. After the procedure, the pups were returned to their dams and were allowed to recover for 1 hour. The pups were then placed in the humidified hypoxic in vivo cabinet (CoyLab, Grass Lake, Mich., USA). […]

[3] = system: doublecortin (DCX); assay: Ex.8 therapeutic HIE rat model: doublecortin staining
Protocol: To study the therapeutic effect of estetrol, newborn rat pups were assigned to one of the following 14 groups at postnatal day 7 (FIG. 23(B)): Sham group (n=12), Vehicle (n=15), 5 mg/kg/day E4 (n=11), 10 mg/kg/day E4 (n=11), 5 mg/kg/day E4+1.6 mg/kg/day PROG (n=11), 10 mg/kg/day E4+1.6 mg/kg/day PROG (n=11), 5 mg/kg/day E4+16 mg/kg/day PROG (n=11), 10 mg/kg/day E4+16 mg/kg/day PROG (n=13), 5 mg/kg/day E4+136 ng//kg/day E2 (n=11), 10 mg/kg/day E4+136 ng/kg/day E2 (n=11), 5 mg/kg/day E4+1.6 mg/kg/day PROG+136 ng/kg/day E2 (n=12), 10 mg/kg/day E4+1.6 mg/kg/day PROG+136 ng/kg/day E2 (n=11), 5 mg/kg/day E4+16 mg/kg/day PROG+136 ng/kg/day E2 (n=11), 10 mg/kg/day E4+16 mg/kg/day PROG+136 ng/kg/day (n=12) groups. […] After surgery, the pups were returned to their dams and allowed to recover for 1 hour. The pups were then placed in a humidified hypoxic in vivo cabinet (CoyLab). […]
The sections were heated in 10 mmol/L citrate buffer (pH 6.0) at 100° C. for 10 minutes. […] Samples were analyzed with the aid of a microscope (Olympus Vanox AHBT3, Olympus), and the ImageJ software 15 (NIH). The percentage of positively stained cells was quantified as a sum of positively stained either DCX or VEGF cells divided by the total number of DAPI positive cells expressed in percentage.

C[C@]12CC[C@@H]3c4ccc(O)cc4CC[C@H]3[C@@H]1[C@@H](O)[C@@H](O)[C@@H]2O [E4, 1,3,5(10)-estratrien-3,15α,16α,17β-tetrol]
expression of S100B protein in blood serum [1]: significantly lower expression
concentration of S100B in blood serum ([2]; 10 mg/kg E4 ip PND4-7 before HI, vs sham, 5 mg/kg E4 and 50 mg/kg E4): significantly higher
concentration of S100B in blood serum ([2]; 50 mg/kg E4 ip PND4-7 before HI): 361 ± 32.914 pg/mL
percentage of DCX positively stained cells ([3]; 5 mg/kg/day E4, CA2/CA3): 15.09±12.17%
DCX positively stained cell percentage ([3]; 5 mg/kg/day E4, hippocampus): 59.73±3.44%
